The text below walks through data of patent US20260132160A1, “IRON REPLACEMENT TREATMENTS” (The General Hospital Corporation, priority 2022, published 2026).

The nature of series [1]: pH-potentiometric titration, Cu2+ complex. Conditions: pH 7.4. The class given is physicochemical. As to the method:
(§1) The aqueous solutions thermodynamics of BBG and its corresponding complexes of Fe^3+, Cu^2+, and Zn^2+ were interrogated through pH-potentiometric titration of BBG (L) in the absence and presence of 1 molar equivalent of Fe^3+, Cu^2+, or Zn^2+, FIG. 13A.
(§2) pH-potentiometric measurements were performed using an Orion ROSS Ultra pH electrode and temperature-controlled reaction vessel held at 310 K. A standardized solution of 0.10 M NaOH was used as the titrant. The electrode was calibrated prior to each titration by titrating a standardized HCl(aq) solution at ionic strength 0.10 using NaCl as the inert electrolyte with the standardized NaOH titrant. A working slope and intercept were generated by plotting mV as a function of calculated pH, which enabled direct conversion of electrode readings to [H^+] during sample titrations. pH values recorded during the titrations refers to hydrogen ion concentration. All titration samples were prepared in solutions of 0.10 M NaCl in distilled, deionized water. Ligand solutions were prepared by dissolving a weighed quantity into water and concentration was determined from the effective weight of the ligand and confirmed by the quantity of NaOH required to consume 1 molar equivalent of ligand proton. […]

A short description of series [2]: Stability of Fe-BBG against trans-chelation by endogenous chelators (UV-vis). The class given is physicochemical. An excerpt: In other words, the ligand BBG binds to Fe^3+ with an estimated 230±40 times higher affinity than citrate.
Series [3] in a line: Human blood plasma incubation, ultrafiltration and ICP-MS of metals. Conditions: 0-5 mM BBG, 1 h, 37° C., 10 kDa cutoff. The protocol:
The plasma concentrate and ultrafiltrate were assayed for concentrations of Cu and Zn, as well as Mn, Mg, and Ca by ICP-MS.
To illustrate this point, human blood plasma samples containing between 0-5 mM BBG were incubated for 1 h at 37° C. before separation of the low-molecular weight solution components by ultrafiltration through a 10 kDa molecular weight cutoff filter. The plasma concentrate and ultrafiltrate were assayed for concentrations of Cu and Zn, as well as Mn, Mg, and Ca by ICP-MS, FIG. 14.

Series [4] is described as follows: pH-potentiometric titration, Zn2+ complex. Conditions: pH 7.4. The class given is physicochemical. As to the method:
as §1, §2

The next series has as its target holo-transferrin (Homo sapiens, UniProt P02787). In words: Fe removal from holo-transferrin by BBG ligand. The class given is biochemical. Conditions: 24 h, pH 7.4, 37° C. The protocol:
Solutions of 20 μM holo-transferrin and BBG of concentration ranging between 0 and 100 μM (0-5 molar equivalents) were incubated for 24 h in pH 7.4 50 mM HEPES buffer supplemented with 25 mM carbonate at 37° C., and Fe removal from transferrin was monitored using fluorescence spectroscopy (excitation wavelength: 280 nm).
In another experiment, […] holo-transferrin and was incubated with 100 μM BBG (10 molar equivalents) for 24 h in pH 7.4 50 mM HEPES buffer supplemented with 25 mM carbonate at 37° C., and Fe removal monitored by urea gel electrophoresis assay, FIG. 11B.

For series [5] the following is noted: cited from earlier work.

Chain of holo-transferrin (P02787 20-698): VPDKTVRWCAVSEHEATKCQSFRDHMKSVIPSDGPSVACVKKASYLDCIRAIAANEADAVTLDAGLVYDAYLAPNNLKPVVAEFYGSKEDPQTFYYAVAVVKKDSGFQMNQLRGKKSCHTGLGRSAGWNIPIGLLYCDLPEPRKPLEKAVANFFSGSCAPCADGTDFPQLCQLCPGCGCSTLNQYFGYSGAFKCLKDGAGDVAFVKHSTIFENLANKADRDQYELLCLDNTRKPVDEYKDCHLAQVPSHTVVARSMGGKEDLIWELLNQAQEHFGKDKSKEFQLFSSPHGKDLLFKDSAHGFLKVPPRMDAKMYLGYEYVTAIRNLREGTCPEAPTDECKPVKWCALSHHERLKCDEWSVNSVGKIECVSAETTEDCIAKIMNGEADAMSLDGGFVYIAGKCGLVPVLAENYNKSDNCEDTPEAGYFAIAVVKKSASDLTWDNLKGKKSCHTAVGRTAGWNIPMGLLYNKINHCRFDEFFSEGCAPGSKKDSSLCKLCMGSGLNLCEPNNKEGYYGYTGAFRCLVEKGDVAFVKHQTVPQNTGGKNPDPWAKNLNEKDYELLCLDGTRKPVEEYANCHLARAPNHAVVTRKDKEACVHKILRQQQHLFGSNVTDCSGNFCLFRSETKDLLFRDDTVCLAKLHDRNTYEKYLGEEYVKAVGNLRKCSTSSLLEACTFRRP

`O=C(O)CC[C@@H](C(=O)O)N(Cc1ccccc1O)Cc1ccccc1O` [BBG, N,N-bis(2-hydroxybenzyl)-L-glutamic acid]: the “greater stability of Fe^3+ binding than Cu^2+” value in series [1] is 9 orders of magnitude. Besides, the “Fe^3+ affinity relative to endogenous chelators” value in series [2] was “substantially higher affinity”. Besides, the “Fe^3+ affinity relative to citrate” value in series [2] (estimated from citrate challenge) is 230±40 times. Moreover, in series [3], the “metal ion content remaining in the plasma concentrate” value was “little effect”. Moreover, the “greater stability of Fe^3+ binding than Zn^2+” value in series [4] was 15 orders of magnitude. Moreover, the “Fe removal from transferrin (urea gel electrophoresis)” value at holo-transferrin (10 μM holo-transferrin, 100 μM BBG (10 molar equivalents)) is “No evidence of Fe removal”. Moreover, the “Fe removal from transferrin (fluorescence spectroscopy)” value on holo-transferrin (20 μM holo-transferrin, 0-100 μM BBG) is reported as “No evidence of Fe removal”.

For “transferrin: the iron carrier protein transferrin”, in series [5], the “log Kcond at pH 7.4 for Fe^3+, first binding site” value is recorded as “about 20.7” and the “log Kcond at pH 7.4 for Fe^3+, second binding site” value was roughly 19.4.
